Data from ChEMBL document CHEMBL3797031, “Structure-activity relationship study of 4-substituted piperidines at Leu26 moiety of novel p53-hDM2 inhibitors” (Bioorg Med Chem Lett, 2016).

tested on: not listed separately; experiment: Antiproliferative activity against p53 null human HCT116 cells; format: functional, cell-based; settings: HCT-116

SMILES | IC50 [µM]
CCC[C@H]1N(C(=O)c2cnccc2C(F)(F)F)CCC[C@@]1(Oc1ccc(C(F)(F)F)cc1)C(=O)N1CCC(Oc2cccc(C(=O)O)n2)CC1 | > 100

target: Cytochrome P450 2D6 (Homo sapiens, UniProt P10635); experiment: Inhibition of CYP2D6 (unknown origin); format: ADME; settings: not given
Sequence (P10635 whole entry): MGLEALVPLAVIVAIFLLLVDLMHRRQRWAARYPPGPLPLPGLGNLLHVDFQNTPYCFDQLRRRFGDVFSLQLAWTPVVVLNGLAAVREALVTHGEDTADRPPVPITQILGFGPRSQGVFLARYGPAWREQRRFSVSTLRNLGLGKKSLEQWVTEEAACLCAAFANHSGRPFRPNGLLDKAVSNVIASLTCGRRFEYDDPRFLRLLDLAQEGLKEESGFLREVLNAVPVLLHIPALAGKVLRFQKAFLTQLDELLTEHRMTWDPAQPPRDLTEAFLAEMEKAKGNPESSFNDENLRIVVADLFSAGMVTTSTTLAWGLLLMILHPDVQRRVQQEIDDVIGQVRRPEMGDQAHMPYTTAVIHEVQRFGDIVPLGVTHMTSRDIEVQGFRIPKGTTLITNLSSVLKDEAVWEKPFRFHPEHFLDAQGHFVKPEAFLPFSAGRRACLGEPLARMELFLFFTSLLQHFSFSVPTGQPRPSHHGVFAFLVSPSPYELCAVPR

SMILES | IC50 [µM]
CCC[C@H]1N(C(=O)c2cnccc2C(F)(F)F)CCC[C@@]1(Oc1ccc(C(F)(F)F)cc1)C(=O)N1CCC(Oc2cccc(C(=O)O)n2)CC1 | > 50

target: Cytochrome P450 2C9 (Homo sapiens, UniProt P11712); experiment: Inhibition of CYP2C9 (unknown origin); format: ADME; settings: not given
Sequence (P11712 whole entry): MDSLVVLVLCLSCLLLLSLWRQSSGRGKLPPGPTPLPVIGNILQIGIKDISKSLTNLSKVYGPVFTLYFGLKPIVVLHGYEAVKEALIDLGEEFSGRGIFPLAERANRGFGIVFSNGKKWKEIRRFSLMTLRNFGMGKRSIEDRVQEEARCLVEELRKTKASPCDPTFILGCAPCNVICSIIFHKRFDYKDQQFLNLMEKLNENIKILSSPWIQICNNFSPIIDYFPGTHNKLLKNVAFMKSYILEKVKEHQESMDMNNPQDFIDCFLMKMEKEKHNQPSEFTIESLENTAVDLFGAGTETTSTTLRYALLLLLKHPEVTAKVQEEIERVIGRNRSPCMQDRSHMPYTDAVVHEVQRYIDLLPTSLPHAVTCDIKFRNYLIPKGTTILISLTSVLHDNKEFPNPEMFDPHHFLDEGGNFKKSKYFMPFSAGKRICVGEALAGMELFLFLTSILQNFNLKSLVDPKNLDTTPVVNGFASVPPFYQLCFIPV

SMILES | IC50 [µM]
CCC[C@H]1N(C(=O)c2cnccc2C(F)(F)F)CCC[C@@]1(Oc1ccc(C(F)(F)F)cc1)C(=O)N1CCC(Oc2cccc(C(=O)O)n2)CC1 | > 50

tested on: not listed separately; experiment: Antiproliferative activity against human HCT116 cells expressing wild type p53; format: functional, cell-based; settings: HCT-116

SMILES | IC50 [µM]
CCC[C@H]1N(C(=O)c2cnccc2C(F)(F)F)CCC[C@@]1(Oc1ccc(C(F)(F)F)cc1)C(=O)N1CCC(Oc2cccc(C(=O)O)n2)CC1 | 8.65

tested on: SK-UT-1; experiment: Antiproliferative activity against human SK-UT-1 cells expressing mutant p53; format: functional, cell-based; settings: not given

SMILES | IC50 [µM]
CCC[C@H]1N(C(=O)c2cnccc2C(F)(F)F)CCC[C@@]1(Oc1ccc(C(F)(F)F)cc1)C(=O)N1CCC(Oc2cccc(C(=O)O)n2)CC1 | > 100

tested on: not listed separately; experiment: Antiproliferative activity against human SJSA1 cells expressing wild type p53; format: functional, cell-based; settings: SJSA-1

SMILES | IC50 [µM]
CCC[C@H]1N(C(=O)c2cnccc2C(F)(F)F)CCC[C@@]1(Oc1ccc(C(F)(F)F)cc1)C(=O)N1CCC(Oc2cccc(C(=O)O)n2)CC1 | 4.65

target: T1, E3 ubiquitin-protein ligase Mdm2 (Homo sapiens, UniProt Q00987); experiment: Binding affinity to human MDM2 assessed as inhibition of interaction with p53 by fluorescence polarization assay; settings: not given
T1 sequence (Q00987 whole entry): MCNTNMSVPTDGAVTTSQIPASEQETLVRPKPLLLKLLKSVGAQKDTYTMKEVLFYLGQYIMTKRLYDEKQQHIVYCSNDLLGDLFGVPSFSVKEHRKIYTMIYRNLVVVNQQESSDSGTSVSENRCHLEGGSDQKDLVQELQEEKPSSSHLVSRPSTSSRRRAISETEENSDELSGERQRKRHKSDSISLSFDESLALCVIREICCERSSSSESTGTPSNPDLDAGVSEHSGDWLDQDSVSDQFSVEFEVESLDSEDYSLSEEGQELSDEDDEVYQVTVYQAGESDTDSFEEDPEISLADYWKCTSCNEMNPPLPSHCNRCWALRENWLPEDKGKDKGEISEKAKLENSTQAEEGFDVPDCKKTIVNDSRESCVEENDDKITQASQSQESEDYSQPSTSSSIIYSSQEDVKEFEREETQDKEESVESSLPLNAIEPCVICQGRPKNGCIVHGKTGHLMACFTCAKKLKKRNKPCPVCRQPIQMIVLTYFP

SMILES | IC50 [µM]
CCC[C@H]1N(C(=O)c2cnccc2C(F)(F)F)CCC[C@@]1(Oc1ccc(C(F)(F)F)cc1)C(=O)N1CCC(Oc2ncccc2C(N)=O)CC1 | 4.28
CCC[C@H]1N(C(=O)c2cnccc2C(F)(F)F)CCC[C@@]1(Oc1ccc(C(F)(F)F)cc1)C(=O)N1CCC(Oc2ccc(CN)cn2)CC1 | 0.801
CCC[C@H]1N(C(=O)c2cnccc2C(F)(F)F)CCC[C@@]1(Oc1ccc(C(F)(F)F)cc1)C(=O)N1CCC(Oc2ccc(C(N)=O)cn2)CC1 | 0.144
CCC[C@H]1N(C(=O)c2cnccc2C(F)(F)F)CCC[C@@]1(Oc1ccc(C(F)(F)F)cc1)C(=O)N1CCC(Oc2cccc(C(=O)OC)n2)CC1 | 0.392
CCC[C@H]1N(C(=O)c2cnccc2C(F)(F)F)CCC[C@@]1(Oc1ccc(C(F)(F)F)cc1)C(=O)N1CCC(Oc2ccc(C#N)cn2)CC1 | 0.492
CCC[C@H]1N(C(=O)c2cnccc2C(F)(F)F)CCC[C@@]1(Oc1ccc(C(F)(F)F)cc1)C(=O)N1CCC(Oc2cc(CN)ccn2)CC1 | 4.03
CCC[C@H]1N(C(=O)c2cnccc2C(F)(F)F)CCC[C@@]1(Oc1ccc(C(F)(F)F)cc1)C(=O)N1CCC(Oc2ccccc2Cl)CC1 | 2.76
CCC[C@H]1N(C(=O)c2cnccc2C(F)(F)F)CCC[C@@]1(Oc1ccc(C(F)(F)F)cc1)C(=O)N1CCC(Oc2cccc(C(F)(F)F)n2)CC1 | 2.04
CCC[C@H]1N(C(=O)c2cnccc2C(F)(F)F)CCC[C@@]1(Oc1ccc(C(F)(F)F)cc1)C(=O)N1CCC(Oc2ccncc2)CC1 | 0.224
CCC[C@H]1N(C(=O)c2cnccc2C(F)(F)F)CCC[C@@]1(Oc1ccc(C(F)(F)F)cc1)C(=O)N1CCC(Oc2ncccn2)CC1 | 0.334
CCC[C@H]1N(C(=O)c2cnccc2C(F)(F)F)CCC[C@@]1(Oc1ccc(C(F)(F)F)cc1)C(=O)N1CCC(Oc2cccc(CN)n2)CC1 | 0.173
CCC[C@H]1N(C(=O)c2cnccc2C(F)(F)F)CCC[C@@]1(Oc1ccc(C(F)(F)F)cc1)C(=O)N1CCC(Oc2ccccn2)CC1 | 0.15
CCC[C@H]1N(C(=O)c2cnccc2C(F)(F)F)CCC[C@@]1(Oc1ccc(C(F)(F)F)cc1)C(=O)N1CCC(Oc2cc(C(N)=O)ccn2)CC1 | 8.72
CCC[C@H]1N(C(=O)c2cnccc2C(F)(F)F)CCC[C@@]1(Oc1ccc(C(F)(F)F)cc1)C(=O)N1CCC(Oc2cccc(C#N)c2)CC1 | 0.399
CCC[C@H]1N(C(=O)c2cnccc2C(F)(F)F)CCC[C@@]1(Oc1ccc(C(F)(F)F)cc1)C(=O)N1CCC(Oc2ccc(C#N)cc2)CC1 | 1.92
CCC[C@H]1N(C(=O)c2cnccc2C(F)(F)F)CCC[C@@]1(Oc1ccc(C(F)(F)F)cc1)C(=O)N1CCC(Sc2ccc(C)cc2)CC1 | 9.36
CCC[C@H]1N(C(=O)c2cnccc2C(F)(F)F)CCC[C@@]1(Oc1ccc(C(F)(F)F)cc1)C(=O)N1CCC(Oc2cnccn2)CC1 | 1.06
CCC[C@H]1N(C(=O)c2cnccc2C(F)(F)F)CCC[C@@]1(Oc1ccc(C(F)(F)F)cc1)C(=O)N1CCC(Oc2cccnc2)CC1 | 0.267
CCC[C@H]1N(C(=O)c2cnccc2C(F)(F)F)CCC[C@@]1(Oc1ccc(C(F)(F)F)cc1)C(=O)N1CCC(Cc2ccccc2)CC1 | 5.83
CCC[C@H]1N(C(=O)c2cnccc2C(F)(F)F)CCC[C@@]1(Oc1ccc(C(F)(F)F)cc1)C(=O)N1CCC(Oc2cccc(Cl)c2)CC1 | 2.1
CCC[C@H]1N(C(=O)c2cnccc2C(F)(F)F)CCC[C@@]1(Oc1ccc(C(F)(F)F)cc1)C(=O)N1CCC(Oc2ccccc2)CC1 | 2.4

SMILES | IC50 [µM]
CCC[C@H]1N(C(=O)c2cnccc2C(F)(F)F)CCC[C@@]1(Oc1ccc(C(F)(F)F)cc1)C(=O)N1CCC(Oc2cccc(C#N)n2)CC1 | 0.686
CCC[C@H]1N(C(=O)c2cnccc2C(F)(F)F)CCC[C@@]1(Oc1ccc(C(F)(F)F)cc1)C(=O)N1CCC(Oc2ccc(Cl)cc2)CC1 | 4.11
CCC[C@H]1N(C(=O)c2cnccc2C(F)(F)F)CCC[C@@]1(Oc1ccc(C(F)(F)F)cc1)C(=O)N1CCC(Oc2cccc(C(=O)NC)n2)CC1 | 0.114
CCC[C@H]1N(C(=O)c2cnccc2C(F)(F)F)CCC[C@@]1(Oc1ccc(C(F)(F)F)cc1)C(=O)N1CCC(Oc2ncccc2CN)CC1 | 7.74
CCC[C@H]1N(C(=O)c2cnccc2C(F)(F)F)CCC[C@@]1(Oc1ccc(C(F)(F)F)cc1)C(=O)N1CCC(Sc2ccccc2)CC1 | 1.98
CCC[C@H]1N(C(=O)c2cnccc2C(F)(F)F)CCC[C@@]1(Oc1ccc(C(F)(F)F)cc1)C(=O)N1CCC(Oc2ccccc2C#N)CC1 | 8.71
CCC[C@H]1N(C(=O)c2cnccc2C(F)(F)F)CCC[C@@]1(Oc1ccc(C(F)(F)F)cc1)C(=O)N1CCC(Oc2ccc(C)cc2)CC1 | 8.77
CCC[C@H]1N(C(=O)c2cnccc2C(F)(F)F)CCC[C@@]1(Oc1ccc(C(F)(F)F)cc1)C(=O)N1CCC(Oc2cccc(C)n2)CC1 | 5.03
CCC[C@H]1N(C(=O)c2cnccc2C(F)(F)F)CCC[C@@]1(Oc1ccc(C(F)(F)F)cc1)C(=O)N1CCC(Cc2ccc(C)cc2)CC1 | 25.8
CCC[C@H]1N(C(=O)c2cnccc2C(F)(F)F)CCC[C@@]1(Oc1ccc(C(F)(F)F)cc1)C(=O)N1CCC(Oc2cccc(C(=O)O)n2)CC1 | 0.042
CCC[C@H]1N(C(=O)c2cnccc2C(F)(F)F)CCC[C@@]1(Oc1ccc(C(F)(F)F)cc1)C(=O)N1CCC(Oc2cccc(OC)n2)CC1 | 1.15
CCC[C@H]1N(C(=O)c2cnccc2C(F)(F)F)CCC[C@@]1(Oc1ccc(C(F)(F)F)cc1)C(=O)N1CCC(Oc2cccc(Br)n2)CC1 | 1.86
CCC[C@H]1N(C(=O)c2cnccc2C(F)(F)F)CCC[C@@]1(Oc1ccc(C(F)(F)F)cc1)C(=O)N1CCC(Oc2ccncn2)CC1 | 0.376
CCC[C@H]1N(C(=O)c2cnccc2C(F)(F)F)CCC[C@@]1(Oc1ccc(C(F)(F)F)cc1)C(=O)N1CCC(Oc2ccccc2C)CC1 | 6.6
CCC[C@H]1N(C(=O)c2cnccc2C(F)(F)F)CCC[C@@]1(Oc1ccc(C(F)(F)F)cc1)C(=O)N1CCC(Oc2cccc(C)c2)CC1 | 0.668
CCC[C@H]1N(C(=O)c2cnccc2C(F)(F)F)CCC[C@@]1(Oc1ccc(C(F)(F)F)cc1)C(=O)N1CCC(Oc2cncnc2)CC1 | 0.525
CCC[C@H]1N(C(=O)c2cnccc2C(F)(F)F)CCC[C@@]1(Oc1ccc(C(F)(F)F)cc1)C(=O)N1CCC(Oc2cc(C#N)ccn2)CC1 | 0.293
CCC[C@H]1N(C(=O)c2cnccc2C(F)(F)F)CCC[C@@]1(Oc1ccc(C(F)(F)F)cc1)C(=O)N1CCC(Oc2ncccc2C#N)CC1 | 2.4
CCC[C@H]1N(C(=O)c2cnccc2C(F)(F)F)CCC[C@@]1(Oc1ccc(C(F)(F)F)cc1)C(=O)N1CCC(Oc2cccc(C(N)=O)n2)CC1 | 0.111
CCC[C@H]1N(C(=O)c2cnccc2C(F)(F)F)CCC[C@@]1(Oc1ccc(C(F)(F)F)cc1)C(=O)N1CCC(Oc2cccc(Cl)n2)CC1 | 2.36

target: Cytochrome P450 3A4 (Homo sapiens, UniProt P08684); experiment: Inhibition of CYP3A4 (unknown origin); format: ADME; settings: not given
Sequence (P08684 whole entry): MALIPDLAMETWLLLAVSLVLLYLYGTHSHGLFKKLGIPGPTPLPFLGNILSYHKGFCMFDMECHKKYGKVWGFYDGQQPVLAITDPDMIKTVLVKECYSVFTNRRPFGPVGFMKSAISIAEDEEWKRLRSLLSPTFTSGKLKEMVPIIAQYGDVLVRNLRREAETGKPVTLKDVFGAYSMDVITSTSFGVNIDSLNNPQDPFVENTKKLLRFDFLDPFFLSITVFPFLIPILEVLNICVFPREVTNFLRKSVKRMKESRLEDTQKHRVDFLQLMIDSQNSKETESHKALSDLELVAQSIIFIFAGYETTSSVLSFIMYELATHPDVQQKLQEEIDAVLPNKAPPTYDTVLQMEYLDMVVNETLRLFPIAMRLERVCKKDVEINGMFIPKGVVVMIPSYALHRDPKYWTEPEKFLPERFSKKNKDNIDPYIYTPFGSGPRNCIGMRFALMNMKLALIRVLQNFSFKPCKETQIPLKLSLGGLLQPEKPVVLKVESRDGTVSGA

SMILES | IC50 [µM]
CCC[C@H]1N(C(=O)c2cnccc2C(F)(F)F)CCC[C@@]1(Oc1ccc(C(F)(F)F)cc1)C(=O)N1CCC(Oc2cccc(C(=O)O)n2)CC1 | > 50

target: T1, E3 ubiquitin-protein ligase Mdm2; experiment: Binding affinity to human MDM2 by temperature dependent fluorescence assay; settings: not given

SMILES | Kd [µM]
O=C(c1cnccc1C(F)(F)F)N1CCCC(Oc2ccc(C(F)(F)F)cc2)(C(=O)N2CCN(c3ccccn3)CC2)C1 (centres undefined) | 0.5
